Source: patent US20100035877A1, “METHODS AND COMPOSITIONS FOR TREATING PATHOLOGIES ASSOCIATED WITH BDNF SIGNALING” (priority 2006, published 2010)

Legend:
[1] = in vivo; cited from earlier work
[2] = system: wildtype and Mecp2 null mice; assay: Whole-body plethysmography of respiratory function after CX546 treatment; assay type: in vivo, mouse; settings: for effect on breathing frequency and minute volume/weight: CX546 40 mg/kg b.i.d. 3 days; for breathing frequency / Coefficient of variation of breathing frequency / minute volume/weight / tidal volume/weight: CX546 40 mg/kg i.p. b.i.d. 3 days; for breathing frequency: 18-24 h after last injection
Protocol: (§1) Beginning on P25, wildtype and Mecp2 null littermates were acclimatized to the injection protocol to reduce stress, first by handling for 10 min./day for 3 days, followed by saline injections (0.9% NaCl, i.p., b.i.d.) at 8:00 AM and 8:00 PM, for an additional 3 days. Subsequently, mice were assigned either to drug treatment (CX546, 40 mg/kg in 16.5% 2-hydroxypropyl-β-cyclodextrin, i.p., b.i.d.) or vehicle injections (cyclodextrin alone). On the day of their last injection, mice were trained in the plethysmograph recording chamber for one hour. Eighteen to 24 hours after their last injection, on P35, mice were returned to the chamber for recording of respiratory activity.
(§2) Breathing was recorded in unrestrained mice using a whole-body flow plethysmograph (Buxco II; Buxco Research Systems, Wilmington, N.C.) in which a constant bias flow supply connected to the animal recording chamber ensured continuous inflow of fresh air (1 L/min.). Ambient temperature was maintained between 23 and 25° C. Breathing traces were analyzed using Biosystem XA software (Buxco Research Systems). After the recording sessions, mice were euthanized with CO2 and tissue processed for BDNF immunoassay.
(§3) Wildtype and Mecp2 null littermates were treated for 3 days with CX546 (40 mg/kg in cyclodextrin, i.p., b.i.d.) or vehicle. Respiratory function was monitored by whole-body plethysmography 18-24 hours after the last injection, as described in Methods. At the end of the recording session the mice were sacrificed and the NG removed for BDNF ELISA. […] Treatment of wildtype mice with CX546 had no effect on NO BDNF content.

[3] = system: BDNF protein in nodose ganglion (NG); assay: BDNF ELISA of intact nodose ganglion after in vivo CX546 treatment; design: species or system mouse; settings: CX546 40 mg/kg i.p. b.i.d. 3 days; for NG BDNF content: mean±SEM, n=6
Protocol: as §1, §2
BDNF protein levels in intact NG or in cultured NG cells were measured by ELISA using the BDNF Emax Immunoassay System (Promega). Protein extracts from one intact NG or from an equivalent number of cultured cells were used for ELISA.
as §3

## O=C(c1ccc2c(c1)OCCO2)N1CCCCC1 [CX546, 1-(1,4-benzodioxan-6-ylcarbonyl)piperidine]
[1]
  half-life: less than an hour
[2]; P35 Mecp2 null mice
  effect on breathing frequency and minute volume/weight: completely restores wildtype frequency and minute volume/weight
[2]; P35 Mecp2 null mice, n=9
  breathing frequency: 176±8 breath/min.
  Coefficient of variation of breathing frequency: 23.4±1.5%
  minute volume/weight: 1.13 ± 0.07 mL/min/g
  tidal volume/weight: 6.5 ± 0.3 µL/g
[2]; P35 wildtype mice, n=7
  breathing frequency: 177±6 breath/min.
  Coefficient of variation of breathing frequency: 18.5±1.2%
  minute volume/weight: 1.14 ± 0.09 mL/min/g
  tidal volume/weight: 6.4 ± 0.5 µL/g
[2]; wildtype mice
  effect on breathing frequency and minute volume/weight: no effect
[3]; P35 Mecp2 null mice
  increase in BDNF protein content compared to vehicle-treated mutants: 42%
  NG BDNF content: 114±4 pg BDNF/mL
[3]; P35 wildtype mice
  NG BDNF content: 167±5 pg BDNF/mL
[3]; wildtype mice
  effect on NG BDNF content: no effect

## [Cl-].[K+] [KCI, potassium chloride]
NG neurons
  BDNF protein compared to unstimulated controls: significant increase
